{
  "source": "patent US6613798B1",
  "about": "“Small organic molecule regulators of cell proliferation” (Curis, Inc., priority 2000, dated 2003)",
  "key": {"[1]": {"test_system": "cerebellar neuron precursors", "assay": "Cerebellar neuron precursor proliferation (3H-thymidine incorporation)", "format": "cell-based, rat", "conditions": "in the absence of Hh protein treatment", "procedure": "In order to test the efficacy of Hedgehog signaling agonists, the ability of the agonists to stimulate the proliferation of cerebellar neuron precursors was determined. Cerebellar granule neuron precursors are known to respond to Hh protein by proliferating. To test the agonists, cerebellar neurons were dissected out of postnatal (one week) rat brains, and placed into primary cell culture. Treatment agents were added once, on the first day of culture (0 DIV). Cells were left in culture until 2 DIV, when 3H-thymidine was added for 5 hours; the amount of incorporation by the cells of this 3H-thymidine provides a measure of the level of proliferation of the cells. Cells were then lysed, and the incorporation of 3H-thymidine was determined. The positive control was Hh protein, at 1.0 μg/ml final concentration. Hh protein alone caused approximately a 20-fold increase in 3H-thymidine incorporation, consistent with the known ability of Shh to stimulate proliferation of these cells. Non-Hh-protein-stimulated cells, including cells treated with control vehicle (DMSO), had very low levels of proliferation. […] At 5.0 μM, the p-cyanophenyl compound B caused 10.2-fold induction of 3H-thymidine incorporation. […] At 1.0, 0.3, or 0.1 μM, D caused 16-, 17-, or 13-fold induction, respectively, of 3H thymidine incorporation into the cells."}, "[2]": {"test_system": "patched (ptc-lacZ β-galactosidase reporter)", "assay": "Reporter mice assay (ptc-lacZ mice, X-gal staining of tissues)", "format": "in vivo, mouse", "procedure": "Mice with a β-galactosidase transgene (ptc-lacZ mice) under the regulatory control of the patched locus expresss the β-galactosidase protein in the same cells where the endogenous mouse patched gene is expressed. The β-galactosidase protein can thus be used as a faithful reporter of the expression of the endogenous patched gene.\nPtc-lacZ mice were divided into four treatment groups and were treated with the following compounds or combinations of compounds for four days, beginning on the first day after birth (dipal-Shh=dipalmitoylated Sonic hedgehog):\nThe vehicle for the agonist was 10% DMSO in PBS (pH 7.2). The agonist was injected from a 4.67 mM stock dissolved in the vehicle solution.\n18 hours following the last injections, the mice were sacrificed and the following tissues were collected: skull, kidney, lung, scapula, skin and heart. All tissues were fixed in 0.2% glutaraldehyde, 5 mM EDTA (pH 8.0), 20 mM MgCl2, 100 mM Na2HPO4 for 30 minutes before staining in 1 mg/ml X-gal, 12.5 mM potassium ferrocyanide, 12.5 mM potassium ferricyanide, 2 mM MgCl2, 0.01% deoxycholate, 0.02% NP-40, and 100 mM Na2HPO4 for 30 hours. Tissues were judged for relative intensity and photographed.\nFIG. 42: Ptc-lacZ mice were divided into two treatment groups and were treated with the following compounds for three days, beginning on the first day after birth:\nThe vehicle for the agonist was 10% DMSO in PBS (pH 7.2). The agonist was injected from a 1.0 mM stock dissolved in the vehicle solution.\nEighteen hours following the last injections, the mice were sacrificed and the forelimbs were collected and processed as described above.\nIn a third experiment, Ptc-lacZ mice were divided into five treatment groups and were treated with the following compounds for four days, beginning on the first day after birth:\nThe vehicle for the agonist was 10% DMSO in PBS (pH 7.2). The agonist was injected from stocks of 0.3, 0.1 and 0.03 mM dissolved in the vehicle solution.\nEighteen hours following the last injections, the mice were sacrificed and the forelimbs were collected and processed as described above. Results of this experiment are depicted in FIG. 43, in which the vehicle control is not shown."}, "[3]": {"test_system": "ptc-lacZ skin punches", "assay": "Skin explants from ptc-lacZ pups (X-Gal stain)", "format": "cell-based, mouse", "conditions": "agonist and a low dose of Hh protein, cultured 6 days", "procedure": "Skin from ptc-lacZ E17.5 pups was excised with a 2 mm skin punch. Those skin punches were then cultured for 6 days in control media, or media including either agonist B or D or Hh protein, or media including both an agonist and Hh protein. The explants were then stained with X-Gal stain."}, "[4]": {"test_system": "Gli-1", "assay": "Quantitative RT-PCR (TaqMan) measurement of Gli-1 transcript in C3H 10T1/2 cells", "format": "cell-based, Murine", "conditions": "compound concentration of 8 μM", "procedure": "(§1) The compounds of FIGS. 32 and 33 were tested for their ability to activate transcription of two well-studied targets of the Hedgehog pathway: the transcription factor Gli-1, and the putative Hedgehog receptor component Ptc-1.\n(§2) Murine C3H 10T1/2 cells were seeded at approximately 200,000 cells per well in a 24-well plate in complete medium (10% FBS). After 24 hr, medium was removed and replaced with “starvation” medium (0.5% FBS) containing dilutions of compound or Hh protein. After 16-18 hr, total RNA was prepared using TriZol (Life Technologies, inc.).\n(§3) One microgram aliquots of total RNA were used to prepare random hexamer-primed cDNA with […] Reverse transcriptase (Life Technologies, Inc.).\n(§4) To measure the relative levels of Gli-1 and Ptc-1 transcripts, TaqMan assays (PE Biosystems) were performed with an ABI Prism 7700 Sequence Detection System. As an internal control, GAPDH transcript levels were simultaneously measured in each reaction. Data were analyzed using Sequence Detector v1.6.3 (Perkin Elmer)."}, "[5]": {"test_system": "ptc-1 (d11) lacZ lungs", "assay": "Lung branching assay (ptc-1 lacZ lung explants)", "format": "cell-based, mouse", "conditions": "5 μM, 48 hrs culture", "procedure": "(§5) E 12.5 old ptc-1 (d11) lacZ lungs were harvested and transgenic embryos identified by lacZ detection using tails. Explants were assembled on 1 μm polycarbonate filters (Costar) placed on top of plastic grids (histology embedding chamber) and placed in standard 12-well tissue culture plates filled with lung explant culture medium (DMEM based, additives optimized for the culture of mouse lungs) for 48 hrs, fixed in lacZ fixative, rinsed and stained for lacZ O/N at 37° C.\nResults are depicted in FIG. 44. In the control panel on the left, LacZ expression can be observed in the mesenchyme immediately adjacent to distal branching tips, a pattern reflective of endogenous patched expression."}, "[6]": {"test_system": "Ptc-1", "assay": "Quantitative RT-PCR (TaqMan) measurement of Ptc-1 transcript in C3H 10T1/2 cells", "format": "cell-based, Murine", "conditions": "compound concentration of 8 μM", "procedure": "as §1, §2, §3, §4"}, "[7]": {"test_system": "ptc-1 (d11) lacZ kidney explants", "assay": "Kidney branching assay (ptc-1 lacZ kidney explants)", "format": "cell-based, mouse", "conditions": "5 μM, 48 hrs culture", "procedure": "as §5, with “E13.5 old” for “E 12.5 old”, “with kidney” for “with lung”\nResults are depicted in FIG. 45. In the control panel on the left, LacZ expression can be observed in the mesenchyme immediately adjacent to proximalmost ureteric epitheilium, a pattern reflective of endogenous patched expression."}, "[8]": {"test_system": "human embryonic palatal mesenchyme (HEPM) cells with a Gli-Luc construct", "assay": "Gli-Luc reporter assay in human reporter cells", "format": "cell-based", "text": "FIGS. 47A and B compare the activity of subject compounds O and R in mouse reporter cells (TM3 cells with a Gli-Luc reporter construct, as described above) and in human reporter cells (human embryonic palatal mesenchyme (HEPM) cells with a Gli-Luc construct)."}},
  "note": "Entries after “also recorded” stand apart in the source; their conditions may differ.",
  "data": [
    {"compound": "CNC1CCC(N(Cc2ccc(OC)c(-c3ccc(C#N)cc3)c2)C(=O)c2sc3ccccc3c2Cl)CC1", "note": "(centres unmarked) [D]", "values": [
      {"measurement": "stimulation of 3H-thymidine incorporation", "setting": "[1]", "value": "strongly stimulated 3H-thymidine incorporation"},
      {"measurement": "upregulation of hedgehog pathway (β-galactosidase) in forelimbs", "setting": "[2]; 0.1 mg/kg/injection 4X/day, four days", "value": "very weak upregulation"},
      {"measurement": "upregulation of hedgehog pathway (β-galactosidase) in forelimbs", "setting": "[2]; 0.3 mg/kg/injection 4X/day, four days", "value": "greater than that seen with injections of Hh protein"},
      {"measurement": "upregulation of hedgehog pathway (β-galactosidase) in forelimbs", "setting": "[2]; 0.9 mg/kg/injection 4X/day, four days, listed as agonist D", "value": "highest levels of upregulation; also recorded: greater than that seen with injections of Hh protein"},
      {"measurement": "upregulation of hedgehog pathway (β-galactosidase) in forelimbs", "setting": "[2]; 4 mg/kg/injection 4X/day, three days, absence of dipal-Shh, listed as Agonist D", "value": "clearly capable of upregulating the hedgehog pathway in vivo"},
      {"measurement": "upregulation of hedgehog pathway (β-galactosidase) in forelimbs", "setting": "[2]; 4 mg/kg/injection 4X/day, three days, absence of dipal-Shh, listed as agonist D", "value": "greater than that seen with injections of dipal-Shh"},
      {"measurement": "X-Gal staining of skin explants", "setting": "[3]", "value": "Analogous results"}
    ]},
    {"compound": "COc1ccc(CN(C(=O)c2sc3ccccc3c2Cl)C2CCC(N)CC2)cc1-c1ccc(C#N)cc1", "note": "(centres unmarked) [B]", "values": [
      {"measurement": "induction of Gli-1 relative to that obtained with the optimal concentration of Hh protein", "setting": "[4]", "value": "approximately 60%"},
      {"measurement": "stimulation of 3H-thymidine incorporation", "setting": "[1]", "value": "significantly stimulate 3H-thymidine incorporation"},
      {"measurement": "upregulation of β-galactosidase (hedgehog pathway) in tissues", "setting": "[2]; 15 mg/kg/injection 4X/day plus dipal-Shh 1 mg/kg/injection 2X/day, four days from first day after birth, skull, kidney, lung, scapula, skin, heart", "value": "clearly capable of upregulating the hedgehog pathway in vivo"},
      {"measurement": "LacZ reporter gene expression in lung explants", "setting": "[5]", "value": "significantly increased reporter gene expression and expansion of the expression domain of the transgene"},
      {"measurement": "induction of Ptc-1 relative to that obtained with the optimal concentration of Hh protein", "setting": "[6]", "value": "approximately 60%"},
      {"measurement": "LacZ reporter gene expression in kidney explants", "setting": "[7]", "value": "significantly increased reporter gene expression and expansion of the expression domain of the transgene"}
    ]},
    {"compound": "COc1ccc(CN(C(=O)c2sc3ccccc3c2Cl)C2CCC(N)CC2)cc1-c1cccc([N+](=O)[O-])c1", "note": "(centres unmarked) [A]", "values": [
      {"measurement": "induction of Gli-1 relative to that obtained with the optimal concentration of Hh protein", "setting": "[4]", "value": "~40", "unit": "%"},
      {"measurement": "stimulation of 3H-thymidine incorporation", "setting": "[1]", "value": "significantly stimulate 3H-thymidine incorporation"},
      {"measurement": "induction of Ptc-1 relative to that obtained with the optimal concentration of Hh protein", "setting": "[6]", "value": "~40", "unit": "%"}
    ]},
    {"compound": "CNC1CCC(N(Cc2ccc(-c3cccnc3)o2)C(=O)c2sc3ccccc3c2Cl)CC1", "note": "(centres unmarked) [R]", "values": [
      {"measurement": "activation of Gli-Luc reporter in human cells", "setting": "[8]", "value": "activation of the reporter cell line"}
    ]}
  ]
}
